# Assay results taken from patent US20120196751A1, “ANTHRAQUINONE CONTAINING PREPARATIONS/LIGNIN FORMULATIONS” (MARRONE BIO INNOVATIONS, INC., priority 2011, published 2012).
# Test system: Phytophthora capsici
# Experiment: Efficacy of WSP and WDG in controlling Phytophthora capsici leaf blight on tomato plants (Example VI)
# Assay type: in vivo
# Conditions: 1.24 g/L; tomato cv Roma; rated 7 days post inoculation
# Protocol: Reynoutria sachalinensis extract was formulated as WSP and as WDG. Both formulations were evaluated for their efficacy in controlling Phytophthora leaf blight on tomato. The cv “Roma” was planted in greenhouse till two true leaf stage. The isolate of P. capsici was grown on lima bean media (150 g lima bean was autoclaved in 500 ml water at 121° C. for 0.5 h and filtered through two layers of cheese cloth to remove seed coats. 20 g of agar was added to the filtrate and increase the volume to 1000 ml. The media was autoclaved at 121° C. for 15 min) for 7 days and the sporangia were washed off with sterile water. The sporangia suspension was incubated at room temperature (about 25° C.) for 1-2 h to release zoospores. The suspension was adjusted to 1.0×10^5 spores/ml. There were three single plant replications per treatments. For each treatment, 3 ml treatment/plant was applied with hand held sprayer. After the treatments dried up in a container for incubation, 10 ml of spore suspension was applied uniformly onto all the plants. The container was sealed to maintain high moisture and the plants were incubated at 25° C. in darkness for 3 days. Disease was rated 7 days post inoculation.
compound,measurement,value
"COCC(=O)N(c1c(C)cccc1C)[C@H](C)C(=O)OC [mefenoxam (Ridomil), mefenoxam]",% Control,95.9%
same,"Severity (%, mean)",2.3%
